Measured values reported in ChEMBL document CHEMBL4627384, “l-Thyroxin and the Nonclassical Thyroid Hormone TETRAC Are Potent Activators of PPARγ” (J Med Chem, 2020).
The source made the active and inactive calls. No cut-off for these calls is given here.

Assays:
[1] = target: Luciferin 4-monooxygenase (Photinus pyralis) (UniProt P08659); assay: Activation of firefly luciferase expressed in HEK293T cells at 15 uM incubated for 14 to 16 hrs by reporter gene assay; assay type: cell-based; settings: HEK-293T
[2] = target: T1, Peroxisome proliferator-activated receptor gamma (Homo sapiens) (UniProt P37231); assay: Agonist activity at PPARgamma in human HepG2 cells without THRB knockdown assessed as induction of CD36 expression at 30 uM incubated for 8 hrs in by Western blot analysis; assay type: cell-based
T1 sequence (whole entry): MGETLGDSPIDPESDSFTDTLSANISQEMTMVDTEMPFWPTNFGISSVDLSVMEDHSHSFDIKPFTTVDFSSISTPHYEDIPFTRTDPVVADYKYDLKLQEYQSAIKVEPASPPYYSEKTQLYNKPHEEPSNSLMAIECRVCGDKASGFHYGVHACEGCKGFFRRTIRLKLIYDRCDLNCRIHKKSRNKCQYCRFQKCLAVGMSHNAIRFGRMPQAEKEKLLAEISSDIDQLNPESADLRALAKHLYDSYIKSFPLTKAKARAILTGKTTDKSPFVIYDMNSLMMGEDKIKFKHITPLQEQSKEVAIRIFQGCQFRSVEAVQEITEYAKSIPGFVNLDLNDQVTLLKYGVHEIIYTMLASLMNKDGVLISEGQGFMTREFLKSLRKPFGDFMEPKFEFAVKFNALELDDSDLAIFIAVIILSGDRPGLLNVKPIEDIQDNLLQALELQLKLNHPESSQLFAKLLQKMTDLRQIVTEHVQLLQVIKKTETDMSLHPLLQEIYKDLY

[3] = Drug metabolism in human HepG2 cells assessed as 2-(4-(4-hydroxy-3-iodophenoxy)-3,5-diiodophenyl)acetic acid formation at 10 uM incubated for 24 hrs by LC-MS analysis; assay type: ADME, cell-based; settings: hepg2, 24 h
[4] = Drug metabolism in human HepG2 cells assessed as (S)-2-amino-3-(4-(4-hydroxy-3-iodophenoxy)-3,5-diiodophenyl)propanoic acid formation at 10 uM incubated for 24 hrs by LC-MS analysis; assay type: ADME, cell-based; settings: hepg2, 24 h
[5] = target: T1, Peroxisome proliferator-activated receptor gamma (Homo sapiens); assay: Agonist activity at PPARgamma in human HepG2 cells assessed as induction of CD36 mRNA expression at 10 to 30 uM incubated for 8 hrs by qPCR analysis; assay type: cell-based
HEK-293T [6] = assay: Activation of renilla luciferase expressed in HEK293T cells at 15 uM incubated for 14 to 16 hrs by reporter gene assay; assay type: cell-based; settings: Renilla reniformis
[7] = target: T1, Peroxisome proliferator-activated receptor gamma (Homo sapiens); assay: Agonist activity at PPARgamma in human HepG2 cells with THRA knockdown assessed as induction of CD36 expression at 30 uM incubated for 8 hrs in by Western blot analysis; assay type: cell-based
HEK-293T [8] = assay: Activation of renilla luciferase expressed in HEK293T cells at 0.1 uM incubated for 14 to 16 hrs by reporter gene assay; assay type: cell-based; settings: Renilla reniformis
[9] = target: T1, Peroxisome proliferator-activated receptor gamma (Homo sapiens); assay: Agonist activity at N-terminal GFP-fused PPARgamma LBD (unknown origin) assessed as biotin-labeled CBP recruitment incubated for 2 hrs by HT-FRET assay relative to rosiglitazone
[10] = target: T1, Peroxisome proliferator-activated receptor gamma (Homo sapiens); assay: Agonist activity at PPARgamma in human HepG2 cells assessed as induction of CD36 mRNA expression at 1 uM incubated for 8 hrs in presence of PPARgamma antagonist GW9662 by qPCR analysis; assay type: cell-based
[11] = target: T2, Retinoic acid receptor RXR-alpha (Homo sapiens) (UniProt P19793); assay: Agonist activity at GFP RXRalpha LBD (unknown origin) assessed as biotin-labeled SRC-1 recruitment incubated for 2 hrs by HT-FRET assay relative to SR11237
T2 sequence (whole entry): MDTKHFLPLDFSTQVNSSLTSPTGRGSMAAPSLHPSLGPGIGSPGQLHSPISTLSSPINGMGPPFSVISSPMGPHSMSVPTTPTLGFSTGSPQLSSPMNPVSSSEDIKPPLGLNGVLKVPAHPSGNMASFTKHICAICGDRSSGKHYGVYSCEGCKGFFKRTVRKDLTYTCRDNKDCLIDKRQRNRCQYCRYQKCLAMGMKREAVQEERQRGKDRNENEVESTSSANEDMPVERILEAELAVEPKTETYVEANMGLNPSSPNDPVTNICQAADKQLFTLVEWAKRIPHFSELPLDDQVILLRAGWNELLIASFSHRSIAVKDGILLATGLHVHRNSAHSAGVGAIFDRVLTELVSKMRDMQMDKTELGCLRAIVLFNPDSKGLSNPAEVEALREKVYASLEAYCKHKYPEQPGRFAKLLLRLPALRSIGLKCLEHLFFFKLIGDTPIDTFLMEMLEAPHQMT

[12] = target: T3, Hepatocyte nuclear factor 4-alpha (Homo sapiens) (UniProt P41235); assay: Agonist activity at recombinant human pFA-CMV-fused HNF4alpha LBD expressed in HEK293T cells transfected with pFR-luciferase plasmid and pRL-SV40 plasmid at 0.001 to 0.3 uM incubated for 14 to 16 hrs by dual glo luciferase reporter gene assay; assay type: cell-based; settings: HEK-293T
T3 sequence (whole entry): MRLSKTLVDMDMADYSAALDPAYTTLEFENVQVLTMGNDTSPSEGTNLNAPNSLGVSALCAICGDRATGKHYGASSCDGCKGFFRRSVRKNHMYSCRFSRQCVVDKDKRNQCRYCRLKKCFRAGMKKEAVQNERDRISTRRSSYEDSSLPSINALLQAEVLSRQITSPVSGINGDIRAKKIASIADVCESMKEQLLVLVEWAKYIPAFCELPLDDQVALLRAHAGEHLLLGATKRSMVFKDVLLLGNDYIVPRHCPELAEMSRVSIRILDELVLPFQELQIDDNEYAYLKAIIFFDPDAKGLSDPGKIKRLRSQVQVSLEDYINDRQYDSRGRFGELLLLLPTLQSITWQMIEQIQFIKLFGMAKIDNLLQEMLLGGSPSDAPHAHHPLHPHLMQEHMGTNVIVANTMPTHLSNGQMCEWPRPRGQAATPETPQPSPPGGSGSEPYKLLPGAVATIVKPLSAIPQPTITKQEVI

[13] = target: T1, Peroxisome proliferator-activated receptor gamma (Homo sapiens); assay: Agonist activity at PPARgamma in human HepG2 cells with THRB knockdown assessed as induction of CD36 expression at 1 uM incubated for 8 hrs in by Western blot analysis; assay type: cell-based
[14] = target: T1, Peroxisome proliferator-activated receptor gamma (Homo sapiens); assay: Agonist activity at PPARgamma in human HepG2 cells assessed as induction of CD36 mRNA expression at 0.03 to 1 uM incubated for 8 hrs by qPCR analysis; assay type: cell-based
[15] = target: T1, Peroxisome proliferator-activated receptor gamma (Homo sapiens); assay: Agonist activity at PPARgamma in human HepG2 cells without THRA knockdown assessed as induction of CD36 expression at 1 uM incubated for 8 hrs in by Western blot analysis; assay type: cell-based

Sequence of Luciferin 4-monooxygenase (Photinus pyralis) (P08659 whole entry): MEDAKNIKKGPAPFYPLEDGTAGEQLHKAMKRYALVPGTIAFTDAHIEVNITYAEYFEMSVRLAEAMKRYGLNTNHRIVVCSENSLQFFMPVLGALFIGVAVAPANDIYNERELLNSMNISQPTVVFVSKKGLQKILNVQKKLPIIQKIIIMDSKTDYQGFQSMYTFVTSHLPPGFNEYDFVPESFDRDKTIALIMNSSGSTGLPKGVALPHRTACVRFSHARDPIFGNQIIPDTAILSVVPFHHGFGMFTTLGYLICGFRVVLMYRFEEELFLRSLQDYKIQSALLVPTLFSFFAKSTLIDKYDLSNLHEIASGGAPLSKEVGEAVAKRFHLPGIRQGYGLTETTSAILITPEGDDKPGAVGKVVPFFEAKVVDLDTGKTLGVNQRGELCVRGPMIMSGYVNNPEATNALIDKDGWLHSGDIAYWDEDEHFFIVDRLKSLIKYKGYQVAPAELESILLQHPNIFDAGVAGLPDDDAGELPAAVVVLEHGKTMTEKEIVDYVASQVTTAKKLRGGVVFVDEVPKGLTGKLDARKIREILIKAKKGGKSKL

Row | Activity [1] | Activity [2] | Drug metabolism [3] | Drug metabolism [4] [ng] | Activity [5] | Activity [7] | Activity [9] | Activity [10] | Activity [11] [%] | Activity [12] | Activity [13] | Activity [14] | Activity [15] | SMILES | Activity (HEK-293T [6]) | Activity (HEK-293T [8])
1 | inactive | Active | Metabolite_Notdetected | 174 | Active | Active | – | – | – | – | – | – | – | N[C@@H](Cc1cc(I)c(Oc2cc(I)c(O)c(I)c2)c(I)c1)C(=O)O [LEVOTHYROXINE] | inactive | –
2 | – | – | – | – | – | – | Active | inactive | 8.2 | inactive | Active | Active | Active | O=C(O)Cc1cc(I)c(Oc2cc(I)c(O)c(I)c2)c(I)c1 [TETRAC] | – | inactive
